Consider two compounds from patent US12685309B2, “Agrochemical formulations” (BASF CORPORATION, priority 2020, dated 2026).

The structures appear in SMILES notation.

For this data set the following is noted: for Appearance of mixture with water (solubility): 400 g mixed with water and stirred, 400 g/l mixture.

From the text: 400 g of Dicamba with the 93.8 wt % purity as defined above in the experimental part were mixed with water and stirred to obtain a 400 g/l mixture of dicamba.
400 g of dicamba with a purity of 98 wt % were mixed with water.

As for `COc1c(Cl)ccc(Cl)c1C(=O)[O-].[K+]` [Dicamba with the 93.8 wt % purity, potassium dicamba], the “Appearance of mixture with water (solubility)” value is on record as “turbid mixture”. Also, the “Stability of the aqueous mixture on storage” value (400 g/l mixture in water, room temperature, two weeks) is “serum formation and sedimentation of the undissolved components”. `COc1c(Cl)ccc(Cl)c1C(=O)O` [dicamba with a purity of 98 wt %, 3,6-dichloro-2-methoxybenzoic acid]: the “Appearance of mixture with water (solubility)” value was “clear solution”.
